Data taken from ChEMBL document CHEMBL4680375 (ACS Med Chem Lett, 2021).
Calls of active or inactive are those of the source. The calls are words filed in the database; no cut-off is given here.

Key:
[1] = molecular target: T1, NAD-dependent protein deacetylase sirtuin-1 (Homo sapiens, UniProt Q96EB6); assay: Inhibition of N-terminal hexa-His-tagged human SIRT1 (156 to 664 residues) expressed in Escherichia coli BL21 (DE3) assessed as deacetylation of Abz-labeled acetyl peptide using Abz-GVLKacAYNO2GY-NH2 peptide as substrate incubated for 30 mins in presence of NAD+ by fluorescence microplate reader assay
T1 sequence (Q96EB6 whole entry): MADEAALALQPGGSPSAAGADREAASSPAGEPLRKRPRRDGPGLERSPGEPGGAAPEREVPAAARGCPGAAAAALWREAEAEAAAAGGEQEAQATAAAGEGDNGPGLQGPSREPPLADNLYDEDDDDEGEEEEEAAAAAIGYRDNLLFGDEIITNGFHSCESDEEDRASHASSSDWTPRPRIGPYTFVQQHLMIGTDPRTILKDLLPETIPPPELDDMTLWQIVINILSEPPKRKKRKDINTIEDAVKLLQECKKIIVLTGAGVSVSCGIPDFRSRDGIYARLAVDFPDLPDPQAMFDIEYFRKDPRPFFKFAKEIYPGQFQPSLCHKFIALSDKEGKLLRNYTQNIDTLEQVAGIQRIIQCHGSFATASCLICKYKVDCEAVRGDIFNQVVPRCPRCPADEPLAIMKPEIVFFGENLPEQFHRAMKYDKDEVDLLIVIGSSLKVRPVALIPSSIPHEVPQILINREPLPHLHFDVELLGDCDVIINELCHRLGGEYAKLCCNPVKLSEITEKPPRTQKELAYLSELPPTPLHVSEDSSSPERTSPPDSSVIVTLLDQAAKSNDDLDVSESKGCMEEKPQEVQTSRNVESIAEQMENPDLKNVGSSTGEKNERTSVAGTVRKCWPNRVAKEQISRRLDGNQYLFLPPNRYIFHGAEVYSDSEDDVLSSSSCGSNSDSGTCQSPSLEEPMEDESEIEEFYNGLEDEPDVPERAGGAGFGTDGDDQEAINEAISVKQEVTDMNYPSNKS

[2] = molecular target: T2, NAD-dependent protein deacetylase sirtuin-2 (Homo sapiens, UniProt Q8IXJ6); assay: Inhibition of GST-fusion tagged human SIRT2 (34 to 356 residues) expressed in Escherichia coli BL21 (DE3) using Abz-GVLKacAYNO2GY-NH2 peptide as substrate incubated for 30 mins in presence of NAD+ by fluorescence microplate reader assay
T2 sequence (Q8IXJ6 whole entry): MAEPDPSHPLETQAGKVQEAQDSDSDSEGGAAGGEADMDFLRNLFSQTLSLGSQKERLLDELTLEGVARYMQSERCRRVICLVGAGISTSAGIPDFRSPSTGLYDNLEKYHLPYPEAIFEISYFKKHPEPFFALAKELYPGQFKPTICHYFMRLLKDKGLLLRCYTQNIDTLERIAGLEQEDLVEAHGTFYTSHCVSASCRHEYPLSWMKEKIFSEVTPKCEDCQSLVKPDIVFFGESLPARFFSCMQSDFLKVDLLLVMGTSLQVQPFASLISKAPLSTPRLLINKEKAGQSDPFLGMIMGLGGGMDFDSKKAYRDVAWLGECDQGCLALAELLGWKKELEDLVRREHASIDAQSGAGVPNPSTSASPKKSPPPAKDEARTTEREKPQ

[3] = molecular target: NAD-dependent protein deacylase sirtuin-5, mitochondrial (Homo sapiens, UniProt Q9NXA8); assay: Inhibition of N-terminal 8His-tagged human SIRT5 (34 to 302 residues) expressed in Escherichia coli Rosetta2 (DE3) using Abz-GVLKacAYNO2GY-NH2 peptide as substrate incubated for 30 mins in presence of NAD+ by fluorescence microplate reader assay
[4] = molecular target: NAD-dependent protein deacylase sirtuin-6 (Homo sapiens, UniProt Q8N6T7); assay: Inhibition of recombinant N-terminal hexa-His-tagged SIRT6 (3 to 318 residues) (unknown origin) expressed in Escherichia coli BL21 (DE3) using RHKKac-AMC as substrate incubated for 2 hrs in presence of NAD+ by fluorescence microplate reader assay
[5] = molecular target: T3, NAD-dependent protein deacetylase sirtuin-1 (Homo sapiens) (UniProt Q96EB6); assay: Inhibition of SIRT1 in human SH-SY5Y cells assessed as increase in acetylated p53 level at 10 uM measured after 72 hrs in presence of ATRA by Western blot analysis; type: cell-based
T3 sequence (whole entry): T1 sequence (Q96EB6 whole entry)

[6] = molecular target: T3, NAD-dependent protein deacetylase sirtuin-1 (Homo sapiens); assay: Inhibition of SIRT1 in human SH-SY5Y cells assessed as increase in acetylated p53 level at 10 uM by Western blot analysis; type: cell-based
[7] = molecular target: T3, NAD-dependent protein deacetylase sirtuin-1 (Homo sapiens); assay: Inhibition of SIRT1 in human SH-SY5Y cells assessed as increase in ratio of acetylated p53 to p53 level by Western blot analysis; type: cell-based; settings: dose 0.1-50 µM

Chain of NAD-dependent protein deacylase sirtuin-5, mitochondrial (Q9NXA8 whole entry, the tested form may be a part): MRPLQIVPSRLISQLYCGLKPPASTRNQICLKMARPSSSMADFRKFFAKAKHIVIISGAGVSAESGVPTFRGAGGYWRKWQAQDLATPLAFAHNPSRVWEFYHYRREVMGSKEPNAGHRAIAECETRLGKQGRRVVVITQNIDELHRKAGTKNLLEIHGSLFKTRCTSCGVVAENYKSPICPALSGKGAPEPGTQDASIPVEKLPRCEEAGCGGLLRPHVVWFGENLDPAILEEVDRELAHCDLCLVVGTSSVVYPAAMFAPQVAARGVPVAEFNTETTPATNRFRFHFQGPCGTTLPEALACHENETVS
Chain of NAD-dependent protein deacylase sirtuin-6 (Q8N6T7 whole entry, the tested form may be a part): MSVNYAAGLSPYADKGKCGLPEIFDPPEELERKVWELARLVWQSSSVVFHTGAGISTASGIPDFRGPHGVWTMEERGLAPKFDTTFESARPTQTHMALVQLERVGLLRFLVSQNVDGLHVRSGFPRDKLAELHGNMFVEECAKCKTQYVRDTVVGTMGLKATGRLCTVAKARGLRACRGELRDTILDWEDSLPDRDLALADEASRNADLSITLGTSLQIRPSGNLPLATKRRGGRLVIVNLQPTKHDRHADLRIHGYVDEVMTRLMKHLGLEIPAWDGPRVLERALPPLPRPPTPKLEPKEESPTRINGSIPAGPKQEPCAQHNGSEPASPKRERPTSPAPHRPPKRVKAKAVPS

SMILES	IC50 ([1]; read-out: IC50)	further results
CC1(c2ccccc2)OC(=O)C(=Cc2ccc(O)cc2)C(=O)O1 (stereo not given)	7.06 µM	
COc1cc(C=C2C(=O)OC(c3ccccc3)OC2=O)ccc1OCc1ccc2c(c1)OCO2 (stereo not given)	8.14 µM	
CC1(c2ccccc2)OC(=O)C(=Cc2ccccc2)C(=O)O1 (stereo not given)		IC50 [1]: Not Active
O=C1OC(c2ccccc2)OC(=O)C1=Cc1cc(F)c(O)c(F)c1 (stereo not given)	4.54 µM	
CCOc1cc(C=C2C(=O)OC(C)(c3ccccc3)OC2=O)ccc1O (stereo not given)	7.92 µM	
COc1cc(OC)c(C=C2C(=O)OC(C)(c3ccccc3)OC2=O)cc1Br (stereo not given)	13.6 µM	
CC1=C(/C=C/C(C)=C/C=C/C(C)=C/C(=O)O)C(C)(C)CCC1		inhibition [6]: inactive
Cc1cc(C=C2C(=O)OC(c3ccccc3)OC2=O)ccc1O (stereo not given)	5.41 µM	
CCOc1cc(C=C2C(=O)OC(c3ccccc3)OC2=O)ccc1O (stereo not given)	5.49 µM	
O=C1OC(c2ccccc2)OC(=O)C1=Cc1ccc(Cl)cc1 (stereo not given)	18.8 µM	
COc1ccc(C=C2C(=O)OC(c3ccccc3)OC2=O)c(OC)c1OC (stereo not given)	15.8 µM	
CC(C)Oc1cccc(C=C2C(=O)OC(c3ccccc3)OC2=O)c1 (stereo not given)	14 µM	
O=C1OC(c2ccccc2)OC(=O)C1=Cc1ccc(O)cc1 (stereo not given)	6.33 µM	
COc1ccc(OC)c(C=C2C(=O)OC(C)(c3ccccc3)OC2=O)c1 (stereo not given)	16.8 µM	
CC(C)(C)c1cc(C=C2C(=O)OC(c3ccccc3)OC2=O)cc(C(C)(C)C)c1O (stereo not given)	19 µM	
NC(=O)[C@@H]1CCCc2c1[nH]c1ccc(Cl)cc21		IC50 [3]: Not Active; IC50 [4]: Not Active
COc1cc(C=C2C(=O)OC(C)(c3ccccc3)OC2=O)ccc1OCc1cccc(C(=O)O)c1 (stereo not given)	12.9 µM	
Nc1c(I)cc(C=C2C(=O)OC(c3ccccc3)OC2=O)cc1I (stereo not given)	10.2 µM	
Nc1c(Br)cc(C=C2C(=O)OC(c3ccccc3)OC2=O)cc1Br (stereo not given)	7.63 µM	
COc1cc(C=C2C(=O)OC(c3ccccc3)OC2=O)cc(OC)c1O (stereo not given)	11.9 µM	
O=C1OC(c2ccccc2)OC(=O)C1=Cc1ccc(OCc2cccc(C(=O)O)c2)cc1 (stereo not given)	10 µM	
COc1ccccc1C=C1C(=O)OC(C)(c2ccccc2)OC1=O (stereo not given)	14.4 µM	
O=C1OC(c2ccccc2)OC(=O)C1=Cc1ccc(O)c(F)c1 (stereo not given)	4.65 µM	

The remaining compounds from weak to strong by IC50 ([1]; read-out: IC50), led by results:

IC50 ([1]; read-out: IC50)	SMILES	further results
4.4 µM	Cc1cc(C=C2C(=O)OC(c3ccccc3)OC2=O)c(C)cc1O (stereo not given)	
3.84 µM	O=C1OC(c2ccccc2)OC(=O)C1=Cc1ccc(O)c(Cl)c1 (stereo not given)	
3.76 µM	O=C1OC(c2ccccc2)OC(=O)C1=Cc1ccc(O)cc1F (stereo not given)	
3.69 µM	CCOc1cc(C=C2C(=O)OC(c3ccccc3)OC2=O)cc([N+](=O)[O-])c1O (stereo not given)	
3.56 µM	O=C1OC(c2ccccc2)OC(=O)C1=Cc1ccc(O)cc1Br (stereo not given)	
3.52 µM	COc1cc(C=C2C(=O)OC(c3ccccc3)OC2=O)c(Br)cc1O (stereo not given)	
3.49 µM	COc1cc(C=C2C(=O)OC(c3ccccc3)OC2=O)cc([N+](=O)[O-])c1O (stereo not given)	
3.1 µM	CCc1cc(C=C2C(=O)OC(c3ccccc3)OC2=O)cc(CC)c1O (stereo not given)	
3.07 µM	Cc1cc(C=C2C(=O)OC(c3ccccc3)OC2=O)cc(C)c1O (stereo not given)	
2.66 µM	COc1cc(C=C2C(=O)OC(c3ccccc3)OC2=O)cc(C(=O)OCc2ccccc2)c1O (stereo not given)	
2.52 µM	O=C1OC(c2ccccc2)OC(=O)C1=Cc1ccc(O)c(OCc2ccccc2)c1 (stereo not given)	
2.48 µM	O=C1OC(c2ccccc2)OC(=O)C1=Cc1ccc(O)c(OCC2CC2)c1 (stereo not given)	
2.47 µM	COc1cc(C=C2C(=O)OC(c3ccccc3)OC2=O)cc(Cc2ccccc2)c1O (stereo not given)	
1.9 µM	COc1cc(C=C2C(=O)OC(c3ccccc3)OC2=O)cc(Cl)c1O (stereo not given)	increase in acetylated p53 level (qualitative) [5]: Active
1.4 µM	O=C1OC(c2ccccc2)OC(=O)C1=Cc1ccc(O)c(Br)c1 (stereo not given)	
1.2 µM	O=C1OC(c2ccccc2)OC(=O)C1=Cc1cc(Cl)c(O)c(Cl)c1 (stereo not given)	IC50 [2]: 56.4 µM; IC50 ([3]; read-out: IC50): 37.4 µM; IC50 [4]: Not Active; increase in acetylated p53 level (qualitative) [5]: Active
1.14 µM	CCOc1cc(C=C2C(=O)OC(c3ccccc3)OC2=O)cc(Br)c1O (stereo not given)	
0.89 µM	COc1cc(C=C2C(=O)OC(c3ccccc3)OC2=O)cc(I)c1O (stereo not given)	IC50 [2]: 49.4 µM; IC50 ([3]; read-out: IC50): 22.4 µM; IC50 [4]: Not Active; increase in acetylated p53 level (qualitative) [5]: Active
0.7 µM	O=C1OC(c2ccccc2)OC(=O)C1=Cc1cc(Br)c(O)c(Br)c1 (stereo not given)	
0.68 µM	O=C1OC(c2ccccc2)OC(=O)C1=Cc1cc(Br)c(O)c(OCc2ccccc2)c1 (stereo not given)	
0.61 µM	O=C1OC(c2ccccc2)OC(=O)C1=Cc1cc(I)c(O)c(OCc2ccccc2)c1 (stereo not given)	
0.46 µM	O=C1OC(c2ccccc2)OC(=O)C1=Cc1cc(I)c(O)c(I)c1 (stereo not given)	IC50 [2]: 52.2 µM; IC50 ([3]; read-out: IC50): 4.98 µM; IC50 [4]: Not Active; increase in acetylated p53 level (qualitative) [5]: Active; inhibition [7]: Dose-dependent effect
